Where “and” joins values, the source holds several entries; their conditions need not be identical. Identical values can stand only once. Entries after “also recorded” stand apart in the source; their conditions may differ. Like-named read-outs stand apart in the source and are kept apart here.
How the values were obtained:
[1] = system: PHIS-PDiTG468; type: biochemical, D. immitis
[2] = system: D. immitis transglutaminase; assay: Effect of ions, inhibitors and other reagents on activity of transglutaminase purified from adult D. immitis worms (microtiter plate assay); type: biochemical
[3] = target: bovine protein disulfide isomerase (PDI) (Bos taurus, UniProt P05307)
[4] = system: D. immitis L3 larvae; assay: D. immitis L3 larval molting in in vitro larval culture; type: cell-based
[5] = target: T1, PDI from bovine liver (Bos taurus, UniProt P05307); assay: Effect of transglutaminase inhibitors on PDI activity of purified bovine liver PDI (scrambled RNase reactivation); type: biochemical; conditions: inhibitor 1 mM
T1 sequence (P05307 21-510): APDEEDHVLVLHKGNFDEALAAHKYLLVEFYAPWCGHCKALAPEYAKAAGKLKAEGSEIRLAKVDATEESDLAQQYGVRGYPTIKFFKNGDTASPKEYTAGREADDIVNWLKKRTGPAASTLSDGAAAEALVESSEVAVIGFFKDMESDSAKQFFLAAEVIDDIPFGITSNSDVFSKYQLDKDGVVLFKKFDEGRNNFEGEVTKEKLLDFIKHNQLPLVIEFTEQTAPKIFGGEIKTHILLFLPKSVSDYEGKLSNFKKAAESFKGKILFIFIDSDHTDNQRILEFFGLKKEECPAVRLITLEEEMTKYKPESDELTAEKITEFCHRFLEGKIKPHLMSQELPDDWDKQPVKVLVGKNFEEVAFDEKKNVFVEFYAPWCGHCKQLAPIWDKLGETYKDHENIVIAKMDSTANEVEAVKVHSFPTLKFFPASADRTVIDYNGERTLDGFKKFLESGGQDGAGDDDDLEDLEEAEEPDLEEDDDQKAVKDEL

[6] = system: PHIS-PDiTG468; type: biochemical, D. immitis; remark: listed apart in the source
[7] = system: dimethylcasein; type: biochemical
[8] = reagent 1 mM, with 10 mM CaCl2 and 10 mM dithiothreitol
[9] = reagent 10 mM, with 10 mM CaCl2 and 10 mM dithiothreitol
[10] = 50 μM, inhibitor present during first 24 hr of L3 culture
[11] = 100 μM, inhibitor present during first 24 hr of L3 culture

Molecule: NCCCCN [Putrescine]
- Activity (mU ± SEM) [1]: 36.5 ± 3.9 mU and 35.3 ± 4.3 mU
- Effect on transglutaminase activity of PHIS-PDiTG468 (in words) [1]: inhibited the transglutaminase activity
- Effect on activity of transglutaminase purified from adult D. immitis worms (in words) [2]: inhibited competitively
- Transglutaminase activity (% of control) [2, 8]: 14 % of control

Molecule: O=C(O)CN(CCOCCOCCN(CC(=O)O)CC(=O)O)CC(=O)O [EGTA]
- Effect on transglutaminase activity of PHIS-PDiTG468 (in words) [1]: inhibited
- Effect on activity of transglutaminase purified from adult D. immitis worms (in words) [2]: completely blocked the activity
- Transglutaminase activity (% of control) [2, 9]: 0 % of control

Molecule: Tris-HCl
- Effect on activity of transglutaminase purified from adult D. immitis worms (in words) [2]: reversibly inhibited the enzyme
- Transglutaminase activity (% of control) [2]: 66 % of control and 40 % of control

Molecule: [Cl-].[K+] [KCl]
- Transglutaminase activity (% of control) ([2]; reagent 500 mM, with 10 mM CaCl2 and 10 mM dithiothreitol): 54 % of control

Molecule: Nc1nc2c(ncn2[C@@H]2O[C@H](COP(=O)(O)OP(=O)(O)OP(=O)(O)O)[C@@H](O)[C@H]2O)c(=O)[nH]1 [GTP]
- Effect on activity of transglutaminase purified from adult D. immitis worms (in words) [2]: not affected adversely
- Transglutaminase activity (% of control) ([2]; reagent 0.1 mM, with 10 mM CaCl2 and 10 mM dithiothreitol): 100 % of control
- Transglutaminase activity (% of control) [2, 8]: 95 % of control

Molecule: N.N.O=S(=O)(O)O [(NH4)2SO4]
- Transglutaminase activity (% of control) [2, 9]: 0 % of control

Molecule: O=C(O)CN(CCN(CC(=O)O)CC(=O)O)CC(=O)O [EDTA]
- Effect on transglutaminase activity of bovine PDI (in words) [3]: inhibited
- Effect on transglutaminase activity of PHIS-PDiTG468 (in words) [1]: inhibited

Molecule: NC(=O)CI [Iodoacetamide]
- Effect on transglutaminase activity of PHIS-PDiTG468 (in words) [1]: inhibited the transglutaminase activity
- Inhibition of molting of L3 to L4 (in words) [4]: able to inhibit
- Effect on activity of transglutaminase purified from adult D. immitis worms (in words) [2]: decreased the activity drastically

Molecule: Nα-CBZ-Gln-Gly
- Effect on activity of transglutaminase purified from adult D. immitis worms (in words) [2]: affects the enzyme activity only slightly
- Transglutaminase activity (% of control) [2]: 92 % of control

Molecule: OCCS [mercaptoethanol]
- Effect on activity of transglutaminase purified from adult D. immitis worms (in words) [2]: increased the enzyme activity substantially

Molecule: CN(C)c1cccc2c(S(=O)(=O)NCCCCCN)cccc12 [Monodansyl cadaverine]
- PDI Activity (Mean ± SD) of PDI [5]: 24.0 ± 2.0 ΔA min^−1
- Activity (mU ± SEM) [1]: 48.3 ± 4.0 mU and 44.6 ± 5.1 mU
- Effect on transglutaminase activity of PHIS-PDiTG468 (in words) [1]: inhibited the transglutaminase activity
- Percent molted ([4]; 25 μM, L3 cultured 6 days): 75%
- Percent molted ([4]; 50 μM, L3 cultured 6 days): 63%
- Percent molted [4, 10]: 64%
- Percent molted ([4]; 75 μM, L3 cultured 6 days): 28%
- Percent molted ([4]; 85 μM, L3 cultured 6 days): 2.5%
- Inhibition of molting of L3 to L4 (in words) ([4]; 100 μM final concentration, listed as MDC): completely inhibited the molting process; also recorded: completely inhibits
- Percent molted ([4]; 100 μM, L3 cultured 6 days): 0%
- Percent molted [4, 11]: 41%
- Molting of larvae cultured in the presence of MDC (in words) ([4]; day 6, electron microscopy study): failed to molt even on day 6
- PDI Activity (Mean ± SD) of PHIS-PDiTG468 [6]: 41.2 ± 2.9 ΔA min^−1
- Effect on activity of transglutaminase purified from adult D. immitis worms (in words) [2]: inhibited competitively
- Transglutaminase activity (% of control) [2, 8]: 9 % of control

Molecule: NCCSSCCN [Cystamine]
- PDI Activity (Mean ± SD) of PDI [5]: 26.4 ± 2.9 ΔA min^−1
- Activity (mU ± SEM) [1]: 46.4 ± 4.6 mU and 28.3 ± 2.2 mU
- Effect on transglutaminase activity of PHIS-PDiTG468 (in words) [1]: inhibited the transglutaminase activity
- Percent molted ([4]; 25 μM, L3 cultured 6 days): 61%
- Percent molted ([4]; 50 μM, L3 cultured 6 days): 62%
- Percent molted [4, 10]: 68%
- Percent molted ([4]; 75 μM, L3 cultured 6 days): 17%
- Percent molted ([4]; 85 μM, L3 cultured 6 days): 1%
- Inhibition of molting of L3 to L4 (in words) ([4]; 100 μM final concentration): completely inhibited the molting process
- Percent molted ([4]; 100 μM, L3 cultured 6 days): 0%
- Percent molted [4, 11]: 13%
- Inhibition of larval molting (in words) ([4]; added on day 2 during the culture): very effective inhibitor of larval molting
- PDI Activity (Mean ± SD) of PHIS-PDiTG468 [6]: 33.3 ± 1.8 ΔA min^−1
- Effect on activity of transglutaminase purified from adult D. immitis worms (in words) [2]: inhibited competitively
- Transglutaminase activity (% of control) [2, 8]: 52 % of control

Molecule: O[C@H](CS)[C@H](O)CS (racemic) [Dithiothreitol]
- Effect on transglutaminase activity of PHIS-PDiTG468 (in words) [1]: more active in the absence of DTT
- Effect on activity of transglutaminase purified from adult D. immitis worms (in words) [2]: increased the enzyme activity substantially

B1: PDI: bovine protein disulfide isomerase, purified from bovine liver, available from Sigma (protein, UniProt P05307 21-510, looked up)
Protein disulfide-isomerase: APDEEDHVLVLHKGNFDEALAAHKYLLVEFYAPWCGHCKALAPEYAKAAGKLKAEGSEIRLAKVDATEESDLAQQYGVRGYPTIKFFKNGDTASPKEYTAGREADDIVNWLKKRTGPAASTLSDGAAAEALVESSEVAVIGFFKDMESDSAKQFFLAAEVIDDIPFGITSNSDVFSKYQLDKDGVVLFKKFDEGRNNFEGEVTKEKLLDFIKHNQLPLVIEFTEQTAPKIFGGEIKTHILLFLPKSVSDYEGKLSNFKKAAESFKGKILFIFIDSDHTDNQRILEFFGLKKEECPAVRLITLEEEMTKYKPESDELTAEKITEFCHRFLEGKIKPHLMSQELPDDWDKQPVKVLVGKNFEEVAFDEKKNVFVEFYAPWCGHCKQLAPIWDKLGETYKDHENIVIAKMDSTANEVEAVKVHSFPTLKFFPASADRTVIDYNGERTLDGFKKFLESGGQDGAGDDDDLEDLEEAEEPDLEEDDDQKAVKDEL
- Temperature of optimum transglutaminase activity [7]: 55 °C
- Activity (mU ± SEM) ([7]; 37 °C): 30.3 ± 1.0 mU
- Activity (mU ± SEM) ([7]; 45 °C): 47.2 ± 2.5 mU
- Activity (mU ± SEM) ([7]; 55 °C): 92.1 ± 4.3 mU
- Activity (mU ± SEM) ([7]; 65 °C): 67.0 ± 2.9 mU

Source: patent publication US6383774B1, “Parasitic nematode transglutaminase, nucleic acid molecules and uses thereof” (Heska Corporation, priority 1996, dated 2002)
